Source: PMC5883364 (Malaria Journal, 2018)
Entries after “also recorded” stand apart in the source; their conditions may differ. Like-named read-outs stand apart in the source and are kept apart here.

Experiments:
[1] = tested on: P. falciparum IPC5202 (artemisinin-resistant, K13 R539T); experiment: SYBR Green I assay, IC50, strain IPC5202; type: cell-based, Plasmodium falciparum; settings: for Resistance Index RIb = IC50 (IPC5202)/IC50 (3D7): IPC5202 vs 3D7; for IC50: Plasmodium falciparum, read-out: P. falciparum IC50 ± SD, IPC5202, strain IPC5202
Method: (§1) Staging and parasitaemia were determined by light microscopy of Giemsa-stained thin blood smears. Anti-malarial activity was determined using the SYBR Green I assay, as previously described.

Plasmodium berghei NK65 = experiment: Peters' 4-day suppressive test in Swiss albino mice; type: in vivo; settings: for in vivo outcome against P. berghei in words / inhibition in vivo at 50 mg/kg/day / Mean parasitaemia ± SD, Day 5 / Mean parasitaemia ± SD, Day 7 / Mean parasitaemia ± SD, Day 10: 50 mg/kg/day oral for 4 days; for in vivo outcome against P. berghei in words: followed to day 10; for inhibition in vivo at 50 mg/kg/day: Plasmodium berghei; for inhibition in vivo at 50 mg/kg/day / Mean parasitaemia ± SD, Day 5 / Mean parasitaemia ± SD, Day 7 / Mean parasitaemia ± SD, Day 10: mice
Method: In vivo tests were performed following the Guidelines for Ethical Conduct in The Care and Use of Animals of the Federal University of Rio Grande do Norte—Brazil (CEUA/UFRN/46/2013). Evaluation of anti-malarial activity in vivo was carried out using the Peters’ 4-day suppressive test, with modifications, as previously described. Swiss albino mice were infected with Plasmodium berghei NK65 and randomly allocated to groups of five animals. Animals were treated with 50 mg/kg/day of each of the tested compounds (dissolved in PBS containing 1% DMSO), administrated orally, for four consecutive days. The control group was treated with a solution of PBS/1% DMSO. On days 5 (D5), 7 (D7) and 10 (D10) after parasite inoculation, tail blood smears were Giemsa-stained and examined microscopically to estimate parasitaemia. Acute toxicity testing was carried out to determine adverse effects due to compounds (including weight loss, hair appearance, skin wounds and behavioural changes), and recorded daily.

[2] = tested on: V79 (Chinese hamster lung) cells; settings: for LD50 V79: Chinese hamster, 24 h; for Selectivity index LD50 (V79)/IC50 (3D7): V79 vs 3D7; for Selectivity index LD50 (V79)/IC50 (Dd2): V79 vs Dd2; for Selectivity index LD50 (V79)/IC50 (IPC4912): V79 vs IPC4912; for Selectivity index LD50 (V79)/IC50 (IPC5202): V79 vs IPC5202
Method: (§2) Cytotoxicity was assessed on the mammalian cell lines HepG2-A16 (human hepatoma) and V79 (Chinese hamster lung), using a MTT based assay, as previously described. […] V79 and HepG2 cell lines were incubated for 24 and 48 h, respectively (media changed at 24 h intervals). Absorbance was read at 570 nm on a multi-mode microplate reader (Triad, Dynex Technologies), to produce a log dose-dependence curve. The LD50 value for each compound was estimated by non-linear interpolation of the dose-dependence curve (GraphPad Software).

[3] = tested on: HepG2-A16 (human hepatoma) cells; settings: for Selectivity index LD50 (HepG2)/IC50 (3D7): HepG2 vs 3D7; for Selectivity index LD50 (HepG2)/IC50 (Dd2): HepG2 vs Dd2; for Selectivity index LD50 (HepG2)/IC50 (IPC4912): HepG2 vs IPC4912; for Selectivity index LD50 (HepG2)/IC50 (IPC5202): HepG2 vs IPC5202; for LD50 HepG2: human, 48 h
Method: as §2

[4] = tested on: P. falciparum IPC4912 (artemisinin-resistant, K13 I543T); experiment: SYBR Green I assay, IC50, strain IPC4912; type: cell-based, Plasmodium falciparum; settings: for Resistance Index RIc = IC50 (IPC4912)/IC50 (3D7): IPC4912 vs 3D7; for IC50: Plasmodium falciparum, read-out: P. falciparum IC50 ± SD, IPC4912
Method: Staging and parasitaemia were determined by light microscopy of Giemsa-stained thin blood smears. Anti-malarial activity was determined using the SYBR Green I assay, as previously described. Briefly, early ring stage parasites (> 80% of rings) were challenged with a 1:3 serial dilution of each compound, in concentrations ranging from 10,000–0.169 nM. Fluorescence intensity was measured with a multi-mode microplate reader (Triad, Dynex Technologies), with excitation and emission wavelengths of 485 and 535 nm, respectively, and analysed by nonlinear regression using GraphPad Prism to determine IC50 values.

[5] = tested on: P. falciparum Dd2 (chloroquine-resistant, mefloquine-resistant); experiment: SYBR Green I assay, IC50, strain Dd2; type: cell-based, Plasmodium falciparum; settings: for Resistance Index RIa = IC50 (Dd2)/IC50 (3D7): Dd2 vs 3D7
Method: as §1

[6] = 120 h, day 5, vs control group, read-out: % inhibition of parasite growth, Day 5 (converted)
[7] = 168 h, day 7, vs control group, read-out: % inhibition of parasite growth, Day 7 (converted)
[8] = 240 h, day 10, vs control group, read-out: % inhibition of parasite growth, Day 10 (converted)

SMILES	Resistance Index RIb = IC50 (IPC5202)/IC50 (3D7) [1]	IC50 [1] [nM]	in vivo outcome against P. berghei in words (Plasmodium berghei NK65)	inhibition in vivo at 50 mg/kg/day (Plasmodium berghei NK65; [6]) [%]	inhibition in vivo at 50 mg/kg/day (Plasmodium berghei NK65; [7]) [%]	inhibition in vivo at 50 mg/kg/day (Plasmodium berghei NK65; [8]) [%]	Mean parasitaemia ± SD, Day 5 (Plasmodium berghei NK65) [%]	Mean parasitaemia ± SD, Day 7 (Plasmodium berghei NK65; day 7) [%]	Mean parasitaemia ± SD, Day 10 (Plasmodium berghei NK65) [%]	LD50 V79 [2] [mM]	Selectivity index LD50 (V79)/IC50 (3D7) [2]	Selectivity index LD50 (V79)/IC50 (Dd2) [2]	Selectivity index LD50 (V79)/IC50 (IPC4912) [2]	Selectivity index LD50 (V79)/IC50 (IPC5202) [2]	Selectivity index LD50 (HepG2)/IC50 (3D7) [3]	Selectivity index LD50 (HepG2)/IC50 (Dd2) [3]	Selectivity index LD50 (HepG2)/IC50 (IPC4912) [3]	Selectivity index LD50 (HepG2)/IC50 (IPC5202) [3]	LD50 HepG2 [3] [mM]	IC50 [4] [nM]	also measured
O=S1(=O)N=C(NCC2CCC3(CC2)OOC2(O3)C3CC4CC(C3)CC2C4)c2ccccc21 (stereo not shown) [LC130]	0.35	8.2 ± 1.9	recrudescence occurred on day 7	100	60.8	76.7	0	1.4 ± 0.94	1.32 ± 0.24	> 1	42918.4	40322.6	416666.6	121951.2	42918.4	40322.6	416666.6	121951.2	1.0	2.4 ± 1.6	mice parasitemic, day 7 (Plasmodium berghei NK65; groups of five mice, 50 mg/kg/day oral, day 7): 2/5; Resistance Index RIc = IC50 (IPC4912)/IC50 (3D7) [4]: 0.10
Cn1nnc(NCC2CCC3(CC2)OOC2(O3)C3CC4CC(C3)CC2C4)n1 (stereo not shown) [LC131]	1.17	3.4 ± 2.1	complete suppression of parasitaemia; also recorded: total suppression of parasitaemia from day 5 to day 10; also recorded: totally suppressed P. berghei parasitaemia	100	100	100	0	0	0	> 1	344827.5	476190.5	208333.3	294117.6	344827.5	476190.5	208333.3	294117.6	1.0	4.8 ± 1.2	Resistance Index RIc = IC50 (IPC4912)/IC50 (3D7) [4]: 1.66
c1ccc(-n2nnnc2OCC2CCC3(CC2)OOC2(O3)C3CC4CC(C3)CC2C4)cc1 (stereo not shown) [LC132]	1.03	25 ± 7.4	recrudescence also occurred on day 10; also recorded: allowed recrudescence on day 10	100	100	94.5	0	0	0.31 ± 0.10	> 1	41322.3	37596.9	50761.4	40000.0	41322.3	37596.9		40000.0	1.0	19.7 ± 3.4	Resistance Index RIa = IC50 (Dd2)/IC50 (3D7) [5]: 1.1; times less active than LC131 or LC136 ([5]; in vitro, strain not stated): up to 12; Resistance Index RIc = IC50 (IPC4912)/IC50 (3D7) [4]: 0.81
C1C2CC3CC1CC(C2)C31OOC2(CCC(Nc3nnn[nH]3)CC2)O1 (stereo not shown) [LC136]	2.18	6.1 ± 1.9	complete suppression of parasitaemia; also recorded: total suppression of parasitaemia from day 5 to day 10; also recorded: totally suppressed P. berghei parasitaemia	100	100	100	0	0	0	> 1	357142.8	400000.0	147058.8	163934.4	357142.8	400000.0	147058.8	163934.4	1.0	6.8 ± 2.3	Resistance Index RIc = IC50 (IPC4912)/IC50 (3D7) [4]: 2.43
CC(C)(C)OC(=O)NCCCCNC1CCC2(CC1)OOC1(O2)C2CC3CC(C2)CC1C3 (stereo not shown) [MIS14]		413 ± 20.2								> 1	25575.4	22421.5	2567.4	2420.7	8439.9	7399.1	847.2	798.8	0.3	390 ± 17.8	Resistance Index RIa = IC50 (Dd2)/IC50 (3D7) [5]: 1.1; decrease in HepG2 survival ([3]; maximum dose of 1 mM): ~30%
